{"source": "the NIST ThermoML archive (doi:10.1016/j.fluid.2016.02.037)", "assay": "Molar enthalpy of transition or fusion", "details": "Crystal; DSC", "note": "Several values for one entry are separate records, joined by “and”; a condition that tells them apart may be missing. Identical values can stand only once.", "data": [{"compound": "Cn1nnnc1SCC1=C(C(=O)[O-])N2C(=O)[C@@H](NC(=O)[C@H](OC=O)c3ccccc3)[C@H]2SC1.[Na+]", "note": "[cefamandole nafate]", "values": [{"measurement": "Molar enthalpy of transition or fusion", "result": "4.51 kcal/mol and 3.33 kcal/mol"}]}]}
